Source: patent US11292785B2, “Nitrogen-containing benzoheterocycle compound comprising carboxylic acid group, preparation method and use thereof” (Sichuan Kelun-Biotech Biopharmaceutical Co., Ltd., priority 2018, dated 2022)
Where two headings read alike, the source gives them in different places.

What was measured:
[1] = biological target: T1, hERG potassium ion channels (Homo sapiens, UniProt Q12809); assay: hERG inhibition test, manual patch clamp, HEK293 cells over-expressing hERG; assay type: cell-based; conditions: tested at 1 μM and 10 μM
T1 construct: expressed in transfected cells; host or cells: HEK293
Protocol: Different concentrations (1 μM and 10 μM) of the test compound and 30 μM positive control Quinidine were formulated. HEK293 cells over-expressing hERG potassium ion channels were cultured in 5% CO2 incubator at 37° C. When the density of the cells reaches 80% of the Petri dish, the cells was washed with phosphate buffer solution (PBS), followed by digestion with Trypsin/EDTA for 2-3 minutes. The digestion was terminated by adding cell culture medium, then the solution was transferred and centrifuged to remove the supernatant, and added with cell culture medium (DMEM, 15% fetal bovine serum and 1% 100×Penicillin-Streptomycin). After uniformly mixing, the cells were dripped onto a circular slide and cultured in a Petri dish to obtain the test cells.
Channel current was recorded by applying electrophysiological manual patch clamp in a whole-cell recording mode: extracellular fluid was perfused until the current was stable, after the peak value of the tail current (control current value) was recorded, the extracellular fluid containing different concentrations of the test compound was perfused, continuously recording was conducted until the inhibition effect of the medicine on the hERG current reach stable, and the peak value of the tail current (current value after drug administration) was recorded.

CYP 3A4M = biological target: T2, CYP 3A4M (Homo sapiens, UniProt P08684); assay: CYP 3A4M inhibition test in human liver microsomes (probe midazolam); assay type: in vitro ADME; conditions: probe substrate midazolam, read-out: CYP 3A4M (μM), half inhibition concentration (IC50)
T2 construct: from tissue; host or cells: human liver microsomes
Protocol: Probe substrate: Midazolam, National Institute of Control of Pharmaceutical & Biological Products, 171265.
Positive control: Ketoconazole, purchased from Dingdang Chemical, DTYC 0516-17.
(§1) A probe substrate (50 μl), PBS (49 μl) and a test compound in different concentrations (0.05 μM, 0.15 μM, 0.5 μM, 1.5 μM, 5 μM, 15 μM, 50 μM) or a positive control (1 μl) were mixed with human liver microsomes (HLM, 50 μl) to give 150 μl of a mixed liquid, which was subjected to pre-incubation (37° C.) for 5 min, then added with NADPH (50 μl) and incubated for 30 min. The reaction was quenched by adding 200 μl of glacial acetonitrile. An appropriate volume of an internal standard substance was added, and after vortex treatment and centrifugation, the supernatant was obtained.
(§2) The detection was performed by using LC-MS/MS. The mass spectrometer was API 5500, the liquid chromatograph was Waters ACQUITY UPLC I-CLASS system. The chromatographic column was Hypersil GOLD C18, 1.9 μm particle size, 50×2.1 mm; mobile phase A: water+0.1% formic acid, mobile phase B: acetonitrile; flow rate: 0.4 ml/min, column temperature: 40° C. The ion source as used was ESI source positive ion mode, and the scanning mode was Multiple Reaction Monitoring (MRM).
(§3) By using solvent group (DMSO) as negative control, the concentrations of the main metabolite converted from the probe substrate in the case of different concentrations of the test compound were measured, to determine the half inhibition concentration of the compound (IC50).

CCR5 = biological target: T3, CCR5 (Homo sapiens, UniProt P51681); assay: Inhibition test on activity of CCR5 in cells (calcium fluorescence, RANTES stimulation); assay type: cell-based; conditions: HEK293 cells stably expressing CCR5, ligand RANTES
T3 construct: host or cells: HEK293
Excerpt: (§4) HEK293 cells that stably express CCR2 and CCR5 receptor proteins were first labeled with calcium ion sensitive fluorescent probe and then stimulated with corresponding ligands (MCP1 and RANTES). After the stimulation, the receptors were activated to trigger the release of the calcium ions from endoplasmic reticulum to cytoplasm. And once the calcium ions were captured by the fluorescent probe, the fluorescent signal could be triggered. The inhibition of compounds on CCR2 and CCR5 can be evaluated by detecting the intensity of the fluorescent signal.
(§5) To each well of the 384-well plates, 2×10^4 HEK293 cells were added and cultured overnight. After being labelled by fluorescent probe, MCP1 and RANTES in different concentrations were added, and the fluorescent signal was read. The fluorescence signal was plotted in relation to the ligand concentration, and according to the four-parameter model, IC50 values were calculated as the ligand concentrations of the CCR2 and CCR5 for the subsequent detection of the compounds.
(§6) By referring to the above results, cells were incubated with the test compound in different concentrations (5000 nM, 1250 nM, 313 nM, 78 nM, 20 nM, 4.8828 nM, 1.2207 nM, 0.3052 nM, 0.0763 nM, and 0.0191 nM), and after MCP1 and RANTES were added thereto, the fluorescent signal was read. The inhibition activity of each concentration group was calculated, wherein the solvent group (not containing the compound) was as the negative control, and the Buffer group (not containing any ligand) was as the blank control: Relative inhibition activity percentage=1−(fluorescent signal of each concentration group-fluorescent signal of the blank group)/(fluorescent signal of the solvent group-fluorescent signal of the blank group)*100%.
(§7) The inhibition activity percentage of each concentration group was plotted in relation to the concentration of the compound, and the curve was fitted according to the four-parameter model, IC50 values were calculated: y=min+(max−min)/(1+(x/IC50)^(−Hillslope))
(§8) wherein y is the relative inhibition activity percentage; max, min are the maximum and minimum values of the fitted curve, respectively; x is the concentration of the compound, and Hillslope is the slope of the curve.

CCR2 = biological target: T4, CCR2 (Homo sapiens, UniProt P41597); assay: Inhibition test on activity of CCR2 in cells (calcium fluorescence, MCP1 stimulation); assay type: cell-based; conditions: HEK293 cells stably expressing CCR2, ligand MCP1
T4 construct: host or cells: HEK293
Excerpt: as §4, §5, §6, §7, §8

CYP 2D6 = biological target: T5, CYP 2D6 (Homo sapiens, UniProt P10635); assay: CYP 2D6 inhibition test in human liver microsomes (probe dextromethorphan); assay type: in vitro ADME; conditions: probe substrate dextromethorphan, read-out: CYP 2D6 (μM), half inhibition concentration (IC50)
T5 construct: from tissue; host or cells: human liver microsomes
Protocol: Probe substrate: Dextromethorpha, Beijing Jinbao, 100201.
Positive control: Quinidine, Damas-bata, P1176507.
as §1, §2, §3

[2] = Rat pharmacokinetic (PK) studies, plasma and liver; assay type: in vivo; conditions: male SD rats, p.o. 5 mg/kg; for Kp: male, SD, liver relative to plasma, 5 mg/kg; for Kp / AUC(0-t) / Cmax / bioavailability / half-life: rat, po
Protocol: The test compound was administered intragastrically (p.o.) to male SD rats at a dose of 5 mg/kg. The solvent system was 0.5% MC during the p.o. administration. After p.o. administration, blood was collected for PK studies at 5 min, 15 min, 30 min, 1 h, 2 h, 4 h, 6 h, 8 h, and 24 h. After p.o. administration, liver tissues were collected at 15 min, 1 h, 4 h, 8 h and 24 h, and the liver tissue sample, after being subjected to protein precipitation treatment, was analyzed by a LC-MS/MS. The mass spectrometer was API 5500, and the liquid chromatograph was Waters ACQUITY I CLASS system: chromatographic column: Agela ASB C18 column (2.1 mm×50 mm, 1.9 μm); mobile phase A: water+0.1% formic acid, mobile phase B: acetonitrile; flow rate: 0.4 mL/min, column temperature: 40° C. The ion source as used was ESI source positive ion mode, and the scanning mode was Multiple Reaction Monitoring (MRM).

CYP 1A2 = biological target: T6, CYP 1A2 (Homo sapiens, UniProt P05177); assay: CYP 1A2 inhibition test in human liver microsomes (probe phenacetin); assay type: in vitro ADME; conditions: probe substrate phenacetin, read-out: CYP 1A2 (μM), half inhibition concentration (IC50)
T6 construct: from tissue; host or cells: human liver microsomes
T6 sequence (P05177 1-516): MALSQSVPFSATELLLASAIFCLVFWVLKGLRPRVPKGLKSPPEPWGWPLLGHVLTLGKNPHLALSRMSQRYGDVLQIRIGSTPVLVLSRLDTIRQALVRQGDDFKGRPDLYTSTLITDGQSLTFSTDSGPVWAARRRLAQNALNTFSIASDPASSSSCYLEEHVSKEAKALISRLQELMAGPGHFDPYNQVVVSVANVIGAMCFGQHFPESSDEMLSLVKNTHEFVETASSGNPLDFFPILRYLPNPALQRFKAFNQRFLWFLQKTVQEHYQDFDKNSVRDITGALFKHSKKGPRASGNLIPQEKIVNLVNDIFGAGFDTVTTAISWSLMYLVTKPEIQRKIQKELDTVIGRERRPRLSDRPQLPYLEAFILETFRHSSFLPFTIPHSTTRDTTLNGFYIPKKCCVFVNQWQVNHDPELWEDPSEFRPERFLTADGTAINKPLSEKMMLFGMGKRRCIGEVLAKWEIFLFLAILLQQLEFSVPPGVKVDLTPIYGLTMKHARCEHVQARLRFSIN
Protocol: Probe substrate: Phenacetin, National Institute of Control of Pharmaceutical & Biological Products, 100095.
Positive control: alpha-naphthoflavane, ACras, A0331533.
as §1, §2, §3

CYP 3A4T = biological target: T7, CYP 3A4T (Homo sapiens, UniProt P08684); assay: CYP 3A4T inhibition test in human liver microsomes (probe testosterone); assay type: in vitro ADME; conditions: probe substrate testosterone, read-out: CYP 3A4T (μM), half inhibition concentration (IC50)
T7 construct: from tissue; host or cells: human liver microsomes
Protocol: Probe substrate: Testosterone, European Pharmacopoeia (EP) Reference Standard, Sigma-Aldrich, T0100000.
Positive control: Ketoconazole, Dingdang Chemical, DTYC 0516-17.
as §1, §2, §3

T7 sequence (P08684 whole entry): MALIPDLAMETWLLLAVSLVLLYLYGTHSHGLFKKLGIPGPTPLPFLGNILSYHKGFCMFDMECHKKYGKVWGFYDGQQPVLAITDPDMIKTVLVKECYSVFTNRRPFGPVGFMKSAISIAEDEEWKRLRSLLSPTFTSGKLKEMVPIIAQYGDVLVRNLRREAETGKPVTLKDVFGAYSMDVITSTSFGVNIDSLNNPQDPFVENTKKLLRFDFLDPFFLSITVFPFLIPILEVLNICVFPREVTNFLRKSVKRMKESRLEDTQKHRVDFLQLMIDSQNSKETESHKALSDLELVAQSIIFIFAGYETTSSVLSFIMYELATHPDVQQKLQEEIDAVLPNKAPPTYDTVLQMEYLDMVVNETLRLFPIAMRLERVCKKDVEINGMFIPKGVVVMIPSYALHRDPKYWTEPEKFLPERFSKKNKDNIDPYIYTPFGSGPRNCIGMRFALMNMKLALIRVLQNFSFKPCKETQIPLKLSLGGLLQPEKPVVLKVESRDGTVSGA
T2 sequence (P08684 whole entry): as above
T5 sequence (P10635 whole entry): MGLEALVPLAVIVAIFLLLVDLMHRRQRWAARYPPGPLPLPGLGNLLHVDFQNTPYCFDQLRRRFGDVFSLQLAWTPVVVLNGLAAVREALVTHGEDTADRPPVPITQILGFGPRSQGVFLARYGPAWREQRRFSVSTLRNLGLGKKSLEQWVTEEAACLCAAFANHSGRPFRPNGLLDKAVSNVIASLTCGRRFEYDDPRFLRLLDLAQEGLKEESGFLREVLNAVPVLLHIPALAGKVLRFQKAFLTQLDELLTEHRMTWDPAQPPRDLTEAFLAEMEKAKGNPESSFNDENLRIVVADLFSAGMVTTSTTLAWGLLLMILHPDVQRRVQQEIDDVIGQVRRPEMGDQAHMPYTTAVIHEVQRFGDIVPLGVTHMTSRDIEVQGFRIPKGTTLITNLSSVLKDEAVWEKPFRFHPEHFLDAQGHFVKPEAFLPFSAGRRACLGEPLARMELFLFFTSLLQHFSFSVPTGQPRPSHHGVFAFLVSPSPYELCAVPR
T1 sequence (Q12809 whole entry): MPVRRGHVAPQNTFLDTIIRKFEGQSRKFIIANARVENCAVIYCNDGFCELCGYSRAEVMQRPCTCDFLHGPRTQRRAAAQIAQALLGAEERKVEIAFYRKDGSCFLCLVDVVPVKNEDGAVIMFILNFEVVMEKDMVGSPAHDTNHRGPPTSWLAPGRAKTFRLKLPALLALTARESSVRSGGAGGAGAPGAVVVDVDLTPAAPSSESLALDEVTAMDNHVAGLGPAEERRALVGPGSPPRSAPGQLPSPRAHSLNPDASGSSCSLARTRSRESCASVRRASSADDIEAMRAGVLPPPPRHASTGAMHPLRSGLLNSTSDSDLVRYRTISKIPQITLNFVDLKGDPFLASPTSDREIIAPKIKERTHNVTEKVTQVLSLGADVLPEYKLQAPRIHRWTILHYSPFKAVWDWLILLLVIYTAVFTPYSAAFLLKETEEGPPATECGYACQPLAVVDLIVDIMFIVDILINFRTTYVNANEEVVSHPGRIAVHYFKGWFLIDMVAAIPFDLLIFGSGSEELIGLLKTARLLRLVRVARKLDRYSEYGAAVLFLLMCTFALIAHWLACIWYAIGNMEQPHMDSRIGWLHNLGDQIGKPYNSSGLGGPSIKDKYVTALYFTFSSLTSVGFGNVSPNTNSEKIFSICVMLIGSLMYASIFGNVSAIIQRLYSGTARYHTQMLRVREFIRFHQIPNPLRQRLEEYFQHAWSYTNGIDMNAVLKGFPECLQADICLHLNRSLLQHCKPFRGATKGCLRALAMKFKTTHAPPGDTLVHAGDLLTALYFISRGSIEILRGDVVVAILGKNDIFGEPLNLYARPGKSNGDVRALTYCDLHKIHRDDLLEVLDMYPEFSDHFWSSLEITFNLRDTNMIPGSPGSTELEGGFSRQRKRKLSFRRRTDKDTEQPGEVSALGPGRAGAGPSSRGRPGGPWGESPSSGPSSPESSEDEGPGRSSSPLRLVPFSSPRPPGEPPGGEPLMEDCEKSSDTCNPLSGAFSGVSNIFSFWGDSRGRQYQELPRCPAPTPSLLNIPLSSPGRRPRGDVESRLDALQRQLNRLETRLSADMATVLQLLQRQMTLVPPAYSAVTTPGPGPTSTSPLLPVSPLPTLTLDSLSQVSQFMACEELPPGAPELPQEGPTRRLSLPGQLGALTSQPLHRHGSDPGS
T4 sequence (P41597 whole entry): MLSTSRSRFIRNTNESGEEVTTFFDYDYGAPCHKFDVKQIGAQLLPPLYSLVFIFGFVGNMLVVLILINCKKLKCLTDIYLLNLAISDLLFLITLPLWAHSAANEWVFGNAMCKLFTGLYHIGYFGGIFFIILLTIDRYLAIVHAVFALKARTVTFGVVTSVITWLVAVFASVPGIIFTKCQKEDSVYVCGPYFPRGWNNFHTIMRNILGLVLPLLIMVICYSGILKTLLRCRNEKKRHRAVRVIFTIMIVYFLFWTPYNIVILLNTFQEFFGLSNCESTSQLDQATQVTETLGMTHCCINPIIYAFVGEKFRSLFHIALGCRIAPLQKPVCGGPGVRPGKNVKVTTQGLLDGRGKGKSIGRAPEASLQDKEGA
T3 sequence (P51681 whole entry): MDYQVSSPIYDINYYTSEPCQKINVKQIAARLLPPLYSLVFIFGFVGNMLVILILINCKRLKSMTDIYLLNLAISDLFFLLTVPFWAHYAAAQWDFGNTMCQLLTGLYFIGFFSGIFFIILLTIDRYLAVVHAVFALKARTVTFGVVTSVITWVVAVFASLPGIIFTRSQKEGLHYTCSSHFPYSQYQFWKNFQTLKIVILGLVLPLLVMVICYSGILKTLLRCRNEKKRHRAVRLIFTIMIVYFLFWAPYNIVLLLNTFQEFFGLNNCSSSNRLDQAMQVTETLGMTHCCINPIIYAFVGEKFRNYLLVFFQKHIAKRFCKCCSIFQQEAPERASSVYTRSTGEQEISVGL

IC50 (CYP 3A4M) | AUClast ([2]; liver) | Kp ([2]; AUClast liver vs plasma, read-out: exposure in the liver relative to that in the plasma) | Kp ([2]; Cmax liver vs plasma, read-out: drug concentration in the liver relative to that in the plasma) | AUC(0-t) ([2]; blood plasma) | Cmax ([2]; blood plasma) | bioavailability ([2]; blood plasma) | half-life ([2]; blood plasma) | Cmax ([2]; liver) | half-life ([2]; liver) | IC50 (CYP 3A4T) | SMILES | IC50 [1] | IC50 (CCR5) | IC50 (CCR2) | IC50 (CYP 2D6) | IC50 (CYP 1A2)
13.3 µM | 386938 ± 30242 ng·h/g | ~2340 | ~530 | 165 ± 36 ng·h/mL | 49.7 ± 10.6 ng/mL | 20.9 ± 4.5% | 1.93 ± 0.37 h | 26600 ± 200 ng/g | 7.2 ± 0.5 h | 32.3 µM | CCCCOCCOc1ccc(-c2ccc3c(c2)/C=C(/C(=O)Nc2ccc([S@@+]([O-])Cc4c(C)ncn4CCC)cc2)CCCN3CC(C)(C)C(=O)O)cc1 [Compound 3] | > 10 µM | 1.48 nM | 0.81 nM | > 10 µM | > 10 µM
15.3 µM | – | – | – | – | – | – | – | – | – | 48.3 µM | CCCCOCCOc1ccc(-c2ccc3c(c2)/C=C(/C(=O)Nc2ccc([S@+]([O-])Cc4c(C)ncn4CCC)cc2)CCCN3CC(C)(C)C(=O)O)cc1 [Compound 4] | > 10 µM | 2.82 nM | 6.12 nM | > 10 µM | > 10 µM
3.43 µM | 6033 ± 2193 ng·h/g | – | – | 6330 ± 3440 ng·h/mL | 746 ± 428 ng/mL | 10.8 ± 3.5% | 4.33 ± 0.87 h | 688 ± 229 ng/g | 3.93 ± 1.88 h | 12.7 µM | CCCCOCCOc1ccc(-c2ccc3c(c2)/C=C(/C(=O)Nc2ccc([S@@+]([O-])Cc4cncn4CCC)cc2)CCCN3CC(C)C)cc1 [Cenicriviroc, reference compound] | – | – | – | – | –

Further lines, the compound ahead of its results:

SMILES | IC50 (CYP 3A4M) | AUClast ([2]; liver) | Kp ([2]; AUClast liver vs plasma, read-out: exposure in the liver relative to that in the plasma) | Kp ([2]; Cmax liver vs plasma, read-out: drug concentration in the liver relative to that in the plasma) | AUC(0-t) ([2]; blood plasma) | Cmax ([2]; blood plasma) | bioavailability ([2]; blood plasma) | half-life ([2]; blood plasma) | Cmax ([2]; liver) | half-life ([2]; liver) | IC50 (CYP 3A4T) | IC50 [1] | IC50 (CCR5) | IC50 (CCR2) | IC50 (CYP 2D6) | IC50 (CYP 1A2)
CCCCOCCOc1ccc(-c2ccc3c(c2)/C=C(/C(=O)Nc2ccc([S+]([O-])Cc4c(C)ncn4CCC)cc2)CCCN3CC(C)(C)C(=O)O)cc1 (stereo not shown) [Compound 2, (E)-3-(8-(4-(2-butoxyethoxy)phenyl)-5-((4-(((4-methyl-1-propyl-1H-imidazol-5-yl)methyl)sulfinyl)phenyl)carbamoyl)-3,4-dihydrobenzo[b]azacyclooctatetraen-1(2H)-yl)-2,2-dimethylpropanoic acid] | 27.8 µM | – | – | – | – | – | – | – | – | – | 62.2 µM | > 10 µM | 3.18 nM | 6.38 nM | > 10 µM | > 10 µM
CCCCOCCOc1ccc(-c2ccc3c(c2)/C=C(/C(=O)Nc2ccc([S@@+]([O-])Cc4cncn4CCC)cc2)CCCN3CC(C)(C)C(=O)O)cc1 [Compound 1, (S,E)-3-(8-(4-(2-butoxyethoxy)phenyl)-5-((4-(((1-propyl-1H-imidazol-5-yl)methyl)sulfinyl)phenyl)carbamoyl)-3,4-dihydrobenzo[b]azacyclooctatetraen-1(2H)-yl)-2,2-dimethylpropanoic acid] | – | – | – | – | – | – | – | – | – | – | – | – | 0.33 nM | 0.74 nM | > 10 µM | > 10 µM
